The record followed here is patent publication US20120021979A1 (Vanderbilt University, priority 2010, published 2012).

The subject of experiment [1] is DAT. Kind of experiment: chronoamperometry of AMPH-induced DA efflux in striatal slices. Format: cell-based. Conditions: pretreatment 100 nM for 20 min, AMPH 10 μM. The source says: Chronoamperometry was used to evaluate AMPH-induced DA efflux in striatal slices.
Experiment [2] deals with DAT. The experiment can be described thus: radiolabeled DA [3H-DA] uptake in striatal slices. Format: cell-based. Conditions: 100 nM for 10 min, 3H-DA 10 min, vs vehicle. Here is the method: Slices were exposed to ^3H-DA for 10 min and then washed to remove excess DA at 4° C. to stop uptake. Slices were homogenized and ^3H-DA quantified by a scintillation counter.
Experiment [3] concerns Na+/K+ ATPase. Kind of experiment: slice based biotinylation, Na+/K+ ATPase surface expression in striatal slices. Type of experiment: cell-based. Conditions: 100 nM, 20 min, rat striatal slices, vs vehicle. From the text: In addition, the absence of tyrosine hydroxylase (TH, a cytosolic protein found in DAT terminals) from the biotinylated surface fraction serves a control for the integrity of our slice preparation and specificity of the surface signal.

For experiment [4], the target named is T1, GLP-1 receptor (Rattus norvegicus, UniProt P32301).
T1 construct: from tissue; host or cells: whole animal (in vivo, i.p. dosing)
T1 sequence (P32301 22-463): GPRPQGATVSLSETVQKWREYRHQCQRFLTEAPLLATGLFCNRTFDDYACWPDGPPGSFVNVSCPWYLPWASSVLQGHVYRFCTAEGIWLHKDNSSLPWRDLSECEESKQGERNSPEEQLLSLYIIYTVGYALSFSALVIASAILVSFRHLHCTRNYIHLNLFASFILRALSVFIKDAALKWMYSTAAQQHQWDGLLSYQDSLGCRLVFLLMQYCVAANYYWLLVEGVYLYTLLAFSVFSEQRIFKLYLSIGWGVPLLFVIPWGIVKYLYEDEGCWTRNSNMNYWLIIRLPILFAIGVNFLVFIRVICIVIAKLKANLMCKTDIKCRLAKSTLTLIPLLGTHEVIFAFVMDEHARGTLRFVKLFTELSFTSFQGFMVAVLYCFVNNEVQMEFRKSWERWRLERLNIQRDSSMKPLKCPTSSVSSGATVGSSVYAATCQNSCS
Kind of experiment: locomotor activity with or without AMPH. Format: in vivo.

For Glucagon-like peptide-1 [GLP-1], the “AMPH-induced increase in extracellular DA” value in experiment [1] is “significantly potentiates”. Moreover, the “DA uptake (3H-DA)” value in experiment [2] was “significantly increased”. In experiment [3], the “surface expression of the Na+/K+ ATPase” value is reported as “did not affect”.
On to exendin-4 [EX4], for which the AMPH-induced locomotor activity result in experiment [4] (30 μg/kg i.p. 90 min prior to AMPH 2.78 mg/Kg i.p.) is reported as “significantly decreased”. For the same substance, the basal locomotion entry in experiment [4] (30 μg/kg i.p., absence of AMPH) is reported as “significantly decreased”.
